Patent US20250026754A1, “SMALL MOLECULE INHIBITORS OF UBIQUITIN SPECIFIC PROTEASE 1 (USP1) AND USES THEREOF” (INSILICO MEDICINE IP LIMITED, priority 2021, published 2025)
pIC50: −log10 of the molar value.

Test system: MDA-MB-436 cells
Assay: MDA-MB-436 breast cancer cell proliferation assay (CellTiter-Glo)
Format: cell-based
Conditions: Homo sapiens, 168 h, 7 days
Method: MDA-MB-436 cells were grown in Leibovitz's L-15 medium with 10 μg/ml insulin, 16 μg/ml glutathione, 10% FBS. Cells were passaged at subconfluence after trypsinization and maintained in incubators at 37° C. in a humidified atmosphere with 5% CO2.
Cell proliferation was determined using CellTiter-Glo® Luminescent Cell Viability Assay (Promega, #G7573). MDA-MB-436 cells were seeded in 384-well plates and allowed to attach for 24 h. Compounds were added into 384-well plate by ECHO, and incubated at 37 C° in a humidified atmosphere with 5% CO2. After 7 days, CellTiter-Glo was added into 384 well plates, contents were mixed on an orbital shaker at […] for 2 min before centrifuging the plate for 2 min at 1000 rpm. After incubation at RT for 30 min, luminescence was read on envision.

pIC50: 6.00 to 7.30
Structure (SMILES): COc1ncnc(C2CC2)c1-c1nn(C)c2c1CN(c1ccc(-n3nc(C(F)(F)F)cc3C)cn1)CC2 [Example 15, 3-(4-cyclopropyl-6-methoxypyrimidin-5-yl)-1-methyl-5-(5-(5-methyl-3-(trifluoromethyl)-1H-pyrazol-1-yl)pyridin-2-yl)-4,5,6,7-tetrahydro-1H-pyrazolo[4,3-c]pyridine]
